{"source": "patent US6461807B1", "about": "“Methods for drug target screening” (priority 1997, dated 2002)", "key": {"[1]": {"tested_on": "S. cerevisiae wild-type and cna, cph1, fpr1 deletion strains", "test": "Transcript array comparison of drug-exposed wild-type and deletion mutant yeast, microarray with 140 selected ORF sites", "type": "cell-based, Saccharomyces cerevisiae", "conditions": "Table 3, 140 ORF sites", "experimental": "(§1) The RNA was converted into cDNA while simultaneously incorporating fluorescent nucleotides, according to standard protocols as described above. The cDNAs were hybridized to either a microarray having 140 sites with relevant S. cerevisiae ORF sequences, or to a microarray having sites with 5900 sites with nearly all known S. cerevisiae ORF sequences. The intensities of the two fluors used to label the RNAs to be compared were measured at each site of the array. The ratio of these intensities is referred to as the expression ratio.\n(§2) To produce deletion mutant transcript arrays, RNA was prepared from a publicly available S. cerevisiae strain that contains genetic disruptions in both catalytic subunits of calcineurin (hereinafter, the cna mutant) and its isogeneic with the parental wild-type strain. These two strains were grown in parallel, harvested and processed in an identical manner as described above. As above, the cDNAs were hybridized to the array and the intensities of the two fluors (expression ratio) were measured at each site of the array. Thereby a cna mutant transcript array was produced.\nDeletion mutant transcript arrays were also produced in similar manners for disruptions to the genes cph1 (coding the major cyclophilin in yeast) and fpr1 (coding the major FK506-binding protein).\n(§3) Selected pairs of the transcript arrays were compared by computing a correlation coefficient between the pairs as previously described. As is known in the art, higher values of the correlation coefficient represent a greater degree of similarity between the pair of arrays. As indicated subsequently, in some cases expression ratios were directly used for this computation, while in other cases the log10 function of the expression ratios were used.\nThis table, in contrast to Table 1 and 2 (which were created from microarrays with approximately 5900 ORF sites) was created from microarray having sites with 140 S. cerevisiae selected ORF sites thought to be relevant to the primary action of these drugs. Correlation coefficients were computed using log10 of the raw expression ratios."}, "[2]": {"tested_on": "S. cerevisiae wild-type and cna, cph1, fpr1 deletion strains", "test": "Transcript array comparison of drug-exposed wild-type and deletion mutant yeast, microarray with approximately 5900 ORFs", "type": "cell-based, Saccharomyces cerevisiae", "experimental": "as §1, §2, §3\nIn this table, columns two and three list the transcript arrays that are compared (labeled “First Transcript Array” and “Second Transcript Array”). Their correlation coefficient is presented in the fourth column (labeled “Corr. Coef.”). The number of standard deviations represented by the correlation coefficient (in terms of the expected correlation coefficient representing one Gaussian standard deviation) is presented in the fifth column (labeled “Std. Dev.”). The expected standard deviation depends on the data set size according to known statistical procedures. The number of standard deviations above the expected mean can be used to determine the statistical significance of the correlation coefficient, as is known in the art.\nThe transcript arrays measured in Tables 1 and 2 were similarly produced by the previously described methods."}, "[3]": {"conditions": "Table 1, log10 of expression ratios, 1 mg/ml FK506 or 30 mg/ml CSA"}}}
{"smiles": "C=CC[C@@H]1/C=C(\\C)C[C@H](C)C[C@H](OC)[C@H]2O[C@@](O)(C(=O)C(=O)N3CCCC[C@H]3C(=O)O[C@H](/C(C)=C/[C@@H]3CC[C@@H](O)[C@H](OC)C3)[C@H](C)[C@@H](O)CC1=O)[C@H](C)C[C@@H]2OC", "note": "[FK506]", "values": [{"measurement": "Corr. Coef., cna mutant FK506 drug transcript array vs cna mutant CSA drug transcript array", "setting": "[1]", "value": 0.20}, {"measurement": "Corr. Coef., cph1 mutant FK506 drug transcript array vs cph1 mutant CSA drug transcript array", "setting": "[1]", "value": 0.15}, {"measurement": "Corr. Coef., cph1 mutant FK506 drug transcript array vs fpr1 mutant CSA drug transcript array", "setting": "[1]", "value": 0.71}, {"measurement": "Corr. Coef., fpr1 mutant FK506 drug transcript array vs cph1 mutant CSA drug transcript array", "setting": "[1]", "value": 0.40}, {"measurement": "Corr. Coef., fpr1 mutant FK506 drug transcript array vs fpr1 mutant CSA drug transcript array", "setting": "[1]", "value": "−0.01"}, {"measurement": "Corr. Coef., wild-type FK506 drug transcript array vs wild-type CSA drug transcript array", "setting": "[1]; log10 of raw expression ratios", "value": 0.67}, {"measurement": "Corr. Coef., wild-type drug transcript array vs cna mutant drug transcript array (same drug)", "setting": "[1]; log10 of raw expression ratios", "value": "−0.12"}, {"measurement": "Corr. Coef., wild-type drug transcript array vs cna mutant transcript array", "setting": "[1]; log10 of raw expression ratios", "value": 0.61}, {"measurement": "Corr. Coef., wild-type drug transcript array vs cph1 mutant drug transcript array (same drug)", "setting": "[1]; log10 of raw expression ratios", "value": 0.70}, {"measurement": "Corr. Coef., wild-type drug transcript array vs fpr1 mutant drug transcript array (same drug)", "setting": "[1]; log10 of raw expression ratios", "value": 0.04}, {"measurement": "Corr. Coef., wild-type vs wild-type transcript array vs wild-type drug transcript array", "setting": "[1]; negative control comparison", "value": "−0.05"}, {"measurement": "Corr. Coef., wild-type drug transcript array vs fpr1 mutant transcript array", "setting": "[2]; Table 1, log10 of expression ratios, 1 mg/ml FK506", "value": "−0.011"}, {"measurement": "Corr. Coef., wild-type FK506 drug transcript array vs wild-type CSA drug transcript array", "setting": "[2]; Table 1, log10 of expression ratios, 1 mg/ml FK506, 30 mg/ml CSA, three generations", "value": 0.334}, {"measurement": "Corr. Coef., wild-type drug transcript array vs cna mutant drug transcript array (same drug)", "setting": "[2]; [3]", "value": 0.065}, {"measurement": "Corr. Coef., wild-type drug transcript array vs cna mutant transcript array", "setting": "[2]; [3]", "value": 0.605}, {"measurement": "Corr. Coef., wild-type drug transcript array vs cph1 mutant drug transcript array (same drug)", "setting": "[2]; [3]", "value": 0.767}, {"measurement": "Corr. Coef., wild-type drug transcript array vs fpr1 mutant drug transcript array (same drug)", "setting": "[2]; [3]", "value": "−0.085"}, {"measurement": "Corr. Coef., wild-type FK506 drug transcript array vs cna mutant FK506 drug transcript array", "setting": "[2]; Table 2", "value": 0.052}, {"measurement": "Corr. Coef., wild-type FK506 drug transcript array vs cna mutant transcript array", "setting": "[2]; Table 2", "value": 0.245}, {"measurement": "Corr. Coef., wild-type FK506 drug transcript array vs cph1 mutant FK506 drug transcript array", "setting": "[2]; Table 2", "value": 0.328}, {"measurement": "Corr. Coef., wild-type FK506 drug transcript array vs fpr1 mutant FK506 drug transcript array", "setting": "[2]; Table 2", "value": 0.136}, {"measurement": "Corr. Coef., wild-type FK506 drug transcript array vs wild-type CSA drug transcript array", "setting": "[2]; Table 2", "value": 0.243}]}
